Assay results from patent US20260026522A1, “METHODS AND DEVICE FOR CO-TREATMENT OF CROP PROTECTION CHEMICALS WITH PLANT GROWTH REGULATORS” (AGROFRESH INC., priority 2016, published 2026).

How the values were obtained:
Botrytis cinerea = assay: Fungicide fogging of wounded, inoculated Red Delicious apples: Botrytis lesion size; type: in vivo, Botrytis cinerea on Red Delicious apples; conditions: measured Day 4
Experimental: (§1) This experiment was conducted exactly the same as described above in Example 1 unless noted otherwise. For example, instead of Golden Delicious apples, this experiment was performed on Red Delicious apples, which are harvested later in the season than Golden Delicious apples. Freshly harvested Red Delicious apples were wounded on the left and right side with Penicillium and Botrytis fungal pathogens, respectively. After inoculation, the apples remained at 20° C. throughout the remainder of the experimental trial to measure growth of the Botrytis fungal pathogen. Inoculated fruits were separated in preparation for an initial trial which comprised three replicates of 10-fruit cohorts totaling 5.5 kg of Red Delicious apples, respectively (see Table 1).
(§2) In this trial, replicate cohorts of Red Delicious apples were fog treated with 250 μL of the benzoxaborole (BOB) solution, 620 μL of the thiabendazole (TBZ) solution, 410 μL of the pyrimethanil (PYR) solution, or 250 μL of the fludioxonil (FDL) solution, respectively (see Table 1). The fungicide fogging treatment was applied to the Red Delicious apples in the sealed treatment chamber comprising a volume of 1.1 m^3 such that the final concentration of active ingredient (“ai”) of each fungicide applied to the Red Delicious apples during the trial was 4.6 mg/kg of benzoxaborole (BOB), 11.2 mg/kg of thiabendazole (TBZ) solution, 11.8 mg/kg of pyrimethanil (PYR) solution, and 4.6 mg/kg of fludioxonil (FDL), respectively (see Table 1).
(§3) After 24 hours of fungicide treatment in the sealed chamber at 20° C., treated apples were returned back to the closed, controlled environment for storage. As described in Example 1, storage of treated Red Delicious apples occurred for at least 12 hours and for up to approximately 72 hours until Day 4 when fungal lesions on the treated Red Delicious apples were measured (see Table 2).

Penicillium expansum = assay: Fungicide fogging of wounded, inoculated Red Delicious apples: Penicillium lesion size; type: in vivo, Penicillium expansum on Red Delicious apples; conditions: for Fungal Lesion Diameter: Penicillium expansum, measured Day 4; for Inhibition of Penicillium expansum fungal growth compared to untreated and propylene glycol controls / Penicillium expansum lesion sizes, range over treatment days: treated on Days 0-3
Experimental: as §1, §2, §3
This experiment was conducted exactly the same as described above in Example 2 unless noted otherwise. In particular, freshly harvested Red Delicious apples were wounded on the left and right side with Penicillium and Botrytis fungal pathogens, respectively. After inoculation, the apples remained at 20° C. throughout the remainder of the experimental trial to measure growth of the Penicillium fungal pathogen.

[1] = tested on: Penicillium expansum and Botrytis cinerea; assay: Fungicide fogging of wounded, inoculated Golden Delicious apples: fungal lesion size; type: in vivo; conditions: 24 h fog at 20° C., measured Day 3 or 4
Excerpt: Freshly harvested plants and crops, such as fruit crops (e.g. apple fruits), were wounded and inoculated with fungal pathogens. Immediately after harvest on Day 0, Golden Delicious apples were wounded on the left and/or the right sides of the fruit. The wounds were immediately inoculated with one or more fungal strains. For example, the wounds on the left side of the fruit were inoculated with Penicillium, while the wounds on the right side of the fruit were inoculated with Botrytis. After inoculation, the apples remained at 20° C. throughout the remainder of the experimental trial.
Inoculated fruits were separated in preparation for an experimental trial that comprised three replicates of 10-fruit cohorts each totaling 5.1 kg of Golden Delicious apples (see Table 1). After inoculation, the apples were held at 20° C. in a closed, controlled environment until fungicide treatment. Prior to fungicide treatment, a fruit cohort was removed from the controlled environment and transported to a sealed treatment chamber having a temperature of 20° C. The fruit cohorts were each treated with a single respective fungicide on Day 0 (i.e., day of harvest), as well as Days 1, 2, 3, and/or 4 after harvest (see Table 2).
More specifically, each fruit cohort was treated a single time for 24 hours with a specific fungicide solution comprising the following active ingredients: benzoxaborole (BOB), thiabendazole (TBZ), pyrimethanil (PYR), and fludioxonil (FDL) as described in Table 1 below. The fungicide solutions used to treat inoculated apples comprised the following concentration of active ingredients: a 100 g/L of benzoxaborole (BOB), thiabendazole (TBZ), and fludioxonil (FDL), or a 160 g/L of pyrimethanil (PYR), respectively (see Table 1).
Inoculated fruits were also treated with a propylene glycol-inoculated negative control (GLY IC). This propylene glycol-inoculated control treatment comprised only propylene glycol, a common fungicide treatment carrier, with no active ingredient (see Table 1). In addition, another cohort of inoculated fruits was not treated with a fungicide at all to produce an untreated inoculated control (UNTRT IC).
In this trial, replicate cohorts of Golden Delicious apples were treated by fogging with 167 μL of the benzoxaborole (BOB) solution, 270 μL of the thiabendazole (TBZ) solution, 410 μL of the pyrimethanil (PYR) solution, or 170 μL of the fludioxonil (FDL) solution, respectively (see Table 1). The fungicide fogging treatment was applied to the Golden Delicious apples in the sealed treatment chamber comprising a volume of 1.1 m^3 such that the final concentration of active ingredient (“ai”) of each fungicide applied to the Golden Delicious apples during the trial was 3.3 mg/kg of benzoxaborole (BOB), 8.0 mg/kg of thiabendazole (TBZ) solution, 8.5 mg/kg of pyrimethanil (PYR) solution, and 3.3 mg/kg of fludioxonil (FDL), respectively (see Table 1).
After 24 hours of fungicide treatment in the sealed chamber at 20° C., treated apples were returned back to the closed, controlled environment for storage. Storage of treated fruit occurred for at least 12 hours and for up to approximately 72 hours until Day 3 or Day 4 when fungal lesions on the treated fruit were measured (see Table 2). For example, inoculated fruit cohorts treated with fungicide on Day 0, where returned to the control chamber on Day 1 and stored there for at least 12 hours (e.g., approximately 48-72 hours) until their fungal lesions were measured on Days 3 or 4 (see Table 2). Inoculated fruit cohorts treated with fungicide on Day 1, where returned to the control chamber on Day 2 and stored there for at least 12 hours (e.g., approximately 24-48 hours) until their fungal lesions were measured on Days 3 or 4 (see Table 2). […]

[2] = Fungicide Fog Day 0, 24 h fog at 20° C.
[3] = Fungicide Fog Day 1, 24 h fog at 20° C.
[4] = Fungicide Fog Day 2, 24 h fog at 20° C.
[5] = Fungicide Fog Day 3, 24 h fog at 20° C.
[6] = Fungicide Fog Day 0, Penicillium and Botrytis lesions averaged
[7] = Fungicide Fog Day 1, Penicillium and Botrytis lesions averaged
[8] = Fungicide Fog Day 2, Penicillium and Botrytis lesions averaged

| SMILES | Fungal Lesion Diameter (Botrytis cinerea; [2]) | Fungal Lesion Diameter (Botrytis cinerea; [3]) | Fungal Lesion Diameter (Botrytis cinerea; [4]) | Fungal Lesion Diameter (Botrytis cinerea; [5]) | Fungal Lesion Diameter (Penicillium expansum; [2]) | Fungal Lesion Diameter (Penicillium expansum; [3]) | Fungal Lesion Diameter (Penicillium expansum; [4]) | Fungal Lesion Diameter (Penicillium expansum; [5]) | Fungal Lesion Diameter [1, 6] | Fungal Lesion Diameter [1, 7] | Fungal Lesion Diameter [1, 8] | Inhibition of Penicillium expansum fungal growth compared to untreated and propylene glycol controls (Penicillium expansum) | Penicillium expansum lesion sizes, range over treatment days (Penicillium expansum) |
| --- | --- | --- | --- | --- | --- | --- | --- | --- | --- | --- | --- | --- | --- |
| N#CC1=CN=CC1c1cccc2c1OC(F)(F)O2 (stereo not shown) [FDL, 4-(2,2-difluoro-1,3-benzodioxol-4-yl)-1H-pyrrole-3-carbonitrile] | 4.1 mm | 7.0 mm | 8.2 mm | 11.7 mm | 11.0 mm | 13.2 mm | 13.4 mm | 15.5 mm | 1.6 mm | 2.7 mm | 3.0 mm | – | – |
| Cc1cc(C)nc(Nc2ccccc2)n1 [PYR, 4,6-Dimethyl-N-phenylpyrimidin-2-amine] | 9.2 mm | 10.4 mm | 12.4 mm | 12.5 mm | 17.2 mm | 17.1 mm | 18.3 mm | 18.3 mm | 0.4 mm | 1.3 mm | 3.6 mm | Neither treatments comprising pyrimethanil (PYR) nor thiabendazole (TBZ) showed a consistent increase in inhibition of Penicillium expansum fungal growth or any significant difference | 17.1-18.3 mm |
| c1ccc2[nH]c(-c3cscn3)nc2c1 [TBZ, 4-(1H-1,3-Benzodiazol-2-yl)-1,3-thiazole] | 10.9 mm | 12.1 mm | 12.7 mm | 12.4 mm | 18.0 mm | 18.4 mm | 17.6 mm | 18.3 mm | 2.0 mm | 4.5 mm | 4.9 mm | Neither treatments comprising pyrimethanil (PYR) nor thiabendazole (TBZ) showed a consistent increase in inhibition of Penicillium expansum fungal growth or any significant difference | 17.6-18.4 mm |
